Results on one compound are retold here after patent EP0432974A1, “Cyclic renin inhibitors” (MERCK & CO. INC., priority 1989, dated 1991).

Square brackets hold non-standard residues; d marks the D form. Peptide text beside a SMILES is read from it. * marks the point of attachment. Sta = CC(C)C[C@H](N)[C@@H](O)CC(=O)O; Isovaleryl = CC(C)CC(=O)*

Assay [1] deals with human plasma renin. Briefly: human plasma renin IC50 determination at pH 7.4. The assay is classed as biochemical. As to the method: The following method was used for in vitro evaluation of the renin inhibitors of Formula I : The human plasma renin IC50 values for inhibitors of Formula I were determined at pH 7.4 following the procedure described in J. Boger, L.S. Payne, D.S. Perlow, N.S. Lohr, M. Poe, E.H. Blaine, E.H. Ulm, T.W. Schorn, B.I. Lamont, T.Y. Lin, M. Kawai, D.H. Rich and D.F. Veber, J. Med. Chem., 28,1779 (1985).

Assay [2] has as its system sodium-deficient Rhesus monkeys. Kind of assay: intravenous evaluation of renin inhibitors in conscious sodium-deficient Rhesus monkeys (blood pressure lowering). The conditions noted are these: i.v. bolus. The assay is classed as in vivo. The source says:
The following methods were used for in vivo evaluation of the renin inhibitors of Formula I : Intravenous evaluation of renin inhibitors in concious sodium-deficient Rhesus monkeys : Rhesus monkeys, male and female, weighing 2.6-4.5 Kg, were surgically prepared with chronic arterial and venous catheters and vascular access ports for direct monitoring of mean arterial pressure (MAP) and heart rate (HR). The animals were maintained on a low sodium diet (1.2 mmol Nalday) plus friut for a week, and administered LASIX (furosemide) at 2.5 mg/Kg, intramuscularly the evening prior to the experiment The animals had been trained to sit quietly in the chairs with water ad libium for the duration of the experiment. The inhibitors were administered by bolus injection using 0.5% acetic acid-5% dextrose in water as the vehicle (0.4 ml/Kg), and MAP and HR were measured. Blood samples were withdrawn at different time intervals beginning at the nadir of hypotensive response. PRAwas determined as described above. […] A projected ED50 dose for each inhibitor was calculated using the following furmula : ED50 (Test Inhibitor, umoles/Kg) = ED50 (SCRIP) X [ICso (Test Inhibitor)/ICso (SCRIP)], where the IC50 values were determined against human plasma renin. […] Percent inhibition of monkey PRA, changes in MAP and HR were calculated and plotted against time. […]

Consider `CC(C)CC(=O)N[C@@H](Cc1c[nH]cn1)C(=O)N1CCC[C@H]1C(=O)N[C@@H](Cc1ccccc1)C(=O)N[C@@H](Cc1c[nH]cn1)C(=O)N[C@@H](CC(C)C)[C@@H](O)CC(=O)N[C@@H](CC(C)C)C(=O)N[C@@H](Cc1ccccc1)C(N)=O` [SCRIP, Iva-His-Pro-Phe-His-Sta-Leu-Phe-NH2] (Isovaleryl-HPFH[Sta]LF-NH2), for which the 50% inhibitory concentration (IC50) (usually the midpoint of a concentration-inhibition curve) in assay [1] was determined as 3.7 nM. Further, the “ED50 (i.v. dose required to lower blood pressure by 50% of the maximal response)” value in assay [2] turned out to be 0.039 µmol/kg.
